In patent publication US9000037B2, “Precursors of glutamate derivatives” (Piramal Imaging SA, priority 2011, dated 2015):

What was measured:
[1] = 19F-fluorination of precursors, reaction rates; type: physicochemical; conditions: for krel (relative reaction rate): 19F-fluorination, slowest reaction (If) defined as 1; for reaction rate of 19F-fluorination, in words: comparison among precursors
Method: Precursor (0.01 mmol) was dissolved in acetonitrile (0.5 mL), and 1.0 M TBAF/acetonitrile solution (20 μL, 0.02 mmol) was added. The reaction mixture was stirred at 80° C. for 2 h. 40 μL of solution was taken at 5, 10, 20, 40, 60, 90, and 120 min for HPLC analysis (method A4).
^19F-Fluorination was performed as described in “General procedures”. The progress of the reaction was examined after 5, 10, 20, 40, 60, 90, and 120 min. Plotting the percentage of the conversation versus the time, the reaction rates were calculated.

[2] = Stability of example compounds in solid form (HPLC); type: physicochemical; conditions: for Solid (%) Start: purity by HPLC before the study; for Solid (%) 1 week 0° C. / Solid (%) 1 week −20° C. / Solid (%) 2 week 0° C. / Solid (%) 2 week −20° C. / Solid (%) 3 week 0° C. / Solid (%) 3 week −20° C. / Solid (%) 4 week 0° C. / Solid (%) 4 week −20° C.: amber vial under Ar; for Solid (%) 2 week 0° C. / Solid (%) 2 week −20° C.: 2 weeks; for Solid (%) 3 week 0° C. / Solid (%) 3 week −20° C.: 3 weeks; for Solid (%) 4 week 0° C. / Solid (%) 4 week −20° C.: 4 weeks
Method: Method A1 (analytics of di-tert-butyl (4S)-4-(3-hydroxypropyl)-N-trityl-L-glutamate • Column: ChiralPak IA, 4.6×250 mm • Mobile phase: 5% IPA/n-heptane • Flow rate: 1 mL/min • Wavelength: 214/254 nm Method A2 (for Id) • Column: X-Bridge • Mobile phase: Acetonitrile/water 20:80 to 100% water • Flow rate: 1 mL/min • Wavelength: 214 nm Method A3 (for Ia to Ic and Ie to II) • Column: X-Bridge • Mobile phase: Acetonitrile/water […] to 100% water • Flow rate: 1 mL/min • Wavelength: 214 nm Method A4 (^19F-fluorination) • Column: Phenomenex Lux 5U Amylose-2 • Mobile phase: 10% IPA/Hex • Flow rate: 1 mL/min • Wavelength: 214 nm Method A5 (^18F-radiolabeling) • Column: Phenomenex Luna 5μ C18(2); 250*4.6 mm • Mobile phase: A: Na2HPO4 10 mM pH 7.4, B: acetonitrile • Gradient: 0 min 12% B, 15 min 12% B, 16 min 100% B, 18 min 100% B, 20 min 12% B, 23 min 12% B • Flow rate: 1.2 mL/min • Wavelength: 340 nm • Derivatization: […] of the product solution are mixed with […] OPA reagent (Thermo Scientific, No.:26015). After 1 min reaction at room temperature the solution is applied to the HPLC
The stability of the compounds of formula I were examined in solid form at two different temperatures: 0° C., and −20° C. The precursors were tested weekly for 4 weeks. Before the study, purities of the precursors were determined individually by HPLC analysis.
1. Solid state: 3-5 mg of the respective precursor Ia to Ij were put into 8 amber vials, which were flushed with Ar gas and capped. Each four vials containing precursor were stored at 0° C., and −20° C. Every week for 4 weeks, 1 mg of precursor was dissolved in acetonitrile (1.0 mL). 10 μL of solution was injected into HPLC (method A2 or A3, respectively).

tumor = conditions: cited from earlier work

Row | SMILES | krel (relative reaction rate) [1] | Solid (%) Start [2] [%] | Solid (%) 1 week 0° C. [2] [%] | Solid (%) 1 week −20° C. [2] [%] | Solid (%) 2 week 0° C. [2] [%] | Solid (%) 2 week −20° C. [2] [%] | Solid (%) 3 week 0° C. [2] [%] | Solid (%) 3 week −20° C. [2] [%] | Solid (%) 4 week 0° C. [2] [%] | Solid (%) 4 week −20° C. [2] [%] | tumor uptake (tumor; first clinical studies) | defluorination (tumor; in vivo) | results in first clinical studies (tumor; compared with [18F]-4-fluoro-glutamic acid) | detection of lung cancer (tumor; first clinical studies) | reaction rate of 19F-fluorination, in words [1]
1 | CC(C)(C)OC(=O)[C@@H](CCCOS(=O)(=O)c1ccc(-c2ccccc2)cc1)C[C@H](NC(c1ccccc1)(c1ccccc1)c1ccccc1)C(=O)OC(C)(C)C [Ic, Di-tert-butyl (4S)-4-{3-[(biphenyl-4-ylsulfonyl)oxy]propyl}-N-trityl-L-glutamate] | 2.93 | 98.8 | 98.6 | 98.6 | 98.6 | 98.7 | 98.6 | 96.9 | 98.4 | 98.0 |  |  |  |  | 
2 | N[C@@H](CC([18F])C(=O)O)C(=O)O (some centres unmarked) [[^18F]-4-fluoro-glutamic acid] |  |  |  |  |  |  |  |  |  |  | good tumor uptake | some defluorination was detected |  |  | 
3 | N[C@@H](C[C@H](CCC[18F])C(=O)O)C(=O)O [(S)-4-(3-[^18F]Fluoropropyl)-L-glutamic acid] |  |  |  |  |  |  |  |  |  |  |  |  | Superior results | Very good results | 
4 | CC(C)(C)OC(=O)[C@@H](CCCOS(=O)(=O)c1cccc2ccccc12)C[C@H](NC(c1ccccc1)(c1ccccc1)c1ccccc1)C(=O)OC(C)(C)C [Ie, Di-tert-butyl (4S)-4-{3-[(1-naphthylsulfonyl)oxy]propyl}-N-trityl-L-glutamate] | 2.45 | 99.1 | 99.0 | 98.9 | 99.0 | 99.0 | 99.0 | 98.6 | 98.6 | 97.9 |  |  |  |  | 
5 | CC(C)(C)OC(=O)[C@@H](CCCOS(=O)(=O)c1cccc([N+](=O)[O-])c1)C[C@H](NC(c1ccccc1)(c1ccccc1)c1ccccc1)C(=O)OC(C)(C)C [Ib, Di-tert-butyl (4S)-4-(3-{[(3-nitrophenyl)sulfonyl]oxy}propyl)-N-trityl-L-glutamate] | 9.86 | 96.7 | 96.5 | 96.6 | 94.6 | 94.8 | 95.0 | 93.7 | 91.3 | 94.3 |  |  |  |  | Fastest conversion
6 | CC(C)(C)OC(=O)[C@@H](CCCOS(=O)(=O)c1ccc([N+](=O)[O-])cc1)C[C@H](NC(c1ccccc1)(c1ccccc1)c1ccccc1)C(=O)OC(C)(C)C [Ia, Di-tert-butyl (4S)-4-(3-{[(4-nitrophenyl)sulfonyl]oxy}propyl)-N-trityl-L-glutamate] | 6.93 | 99.4 | 99.5 | 99.4 | 99.3 | 99.2 | 99.1 | 99.0 | 98.7 | 98.4 |  |  |  |  | Fastest conversion
7 | CC(C)(C)OC(=O)[C@@H](CCCOS(=O)(=O)c1ccc2ccccc2c1)C[C@H](NC(c1ccccc1)(c1ccccc1)c1ccccc1)C(=O)OC(C)(C)C [Id, Di-tert-butyl (4S)-4-{3-[(2-naphthylsulfonyl)oxy]propyl}-N-trityl-L-glutamate] | 2.38 | 99.8 | 99.8 | 99.8 |  |  | 99.8 | 99.8 | 99.8 | 99.8 |  |  |  |  | 
8 | CC(C)(C)OC(=O)[C@@H](CCCOS(=O)(=O)c1ccc([N+](=O)[O-])c(C(F)(F)F)c1)C[C@H](NC(c1ccccc1)(c1ccccc1)c1ccccc1)C(=O)OC(C)(C)C [Ih, Di-tert-butyl (4S)-4-[3-({[4-nitro-3-(trifluoromethyl)phenyl]sulfonyl}oxy)propyl]-N-trityl-L-glutamate] |  | 97.6 | 94.4 | 94.6 | 95.0 | 94.8 | 93.1 | 93.1 | 93.4 | 92.8 |  |  |  |  | 
9 | CC(C)(C)OC(=O)[C@@H](CCCOS(=O)(=O)c1cccc2cccnc12)C[C@H](NC(c1ccccc1)(c1ccccc1)c1ccccc1)C(=O)OC(C)(C)C [If, Di-tert-butyl (4S)-4-{3-[(quinolin-8-ylsulfonyl)oxy]propyl}-N-trityl-L-glutamate] | 1.0 | 90.5 | 89.5 | 89.6 | 89.0 | 88.5 | 89.0 | 88.3 | 89.0 | 87.0 |  |  |  |  | slowest reaction
10 | CC(C)(C)OC(=O)[C@@H](CCCOS(=O)(=O)c1ccc(-c2ccc(S(=O)(=O)OCCC[C@@H](C[C@H](NC(c3ccccc3)(c3ccccc3)c3ccccc3)C(=O)OC(C)(C)C)C(=O)OC(C)(C)C)cc2)cc1)C[C@H](NC(c1ccccc1)(c1ccccc1)c1ccccc1)C(=O)OC(C)(C)C [Ig, Tetra-tert-butyl (2S,4S,2′S,4′S)-2,2′-[biphenyl-4,4′-diylbis(sulfonyloxypropane-3,1-diyl)]bis[4-(tritylamino)pentanedioate]] | 11.8 | 97.9 | 97.9 | 98.0 | 98.0 | 98.1 | 97.9 | 97.9 | 97.8 | 97.5 |  |  |  |  | Fastest conversion
11 | CC(C)(C)OC(=O)[C@@H](CCCOS(=O)(=O)c1c(Cl)cc(Cl)cc1Cl)C[C@H](NC(c1ccccc1)(c1ccccc1)c1ccccc1)C(=O)OC(C)(C)C [Ii, Di-tert-butyl (4S)-4-(3-{[(2,4,6-trichlorophenyl)sulfonyl]oxy}propyl)-N-trityl-L-glutamate] | 1.88 | 97.2 | 89.5 | 89.6 | 97.0 | 97.0 | 96.7 | 95.6 | 95.9 | 93.2 |  |  |  |  | 
